Assay in all cases: relative viability (nuclei count vs DMSO), 5 days (fraction); higher = more cells survive
Compound in assay [1]: C1=CC2=C(C=C(C(=C2N=C1)O)N=NC3=CC4=C(C=C3)C=C(C=C4)S(=O)(=O)O)S(=O)(=O)O + Cc1nc(Nc2ncc(C(=O)Nc3c(C)cccc3Cl)s2)cc(N2CCN(CCO)CC2)n1 [Dasatinib] (partner 0.075 µM)
Summed up: (§1)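 Relative viability divides the nuclei count in treated wells by that in vehicle wells. Lung cancer cell lines were seeded in 1536-well plates, dosed by pin tool the next day, and fixed and stained after 5 days in one step with final 0.05% Triton X-100, 1% formaldehyde and 1 ug/ml Hoechst. Dosing was a single drug or a fixed anchor-drug dose plus five library-drug doses (not always all listed) in √10 steps, and values are medians of duplicate plates imaged at 4×.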

Compound in assay [2]: O=C(NC1CCNCC1)c1n[nH]cc1NC(=O)c1c(Cl)cccc1Cl [AT-7519] + CC(=O)Nc1cccc(-n2c(=O)n(C3CC3)c(=O)c3c(Nc4ccc(I)cc4F)n(C)c(=O)c(C)c32)c1 [Trametinib] (partner 0.02 µM)
The procedure, abridged:
as §1

Compound in assay [3]: O=C(NC1CCNCC1)c1n[nH]cc1NC(=O)c1c(Cl)cccc1Cl [AT-7519] + CC1(C)CCC(c2ccc(Cl)cc2)=C(CN2CCN(c3ccc(C(=O)NS(=O)(=O)c4ccc(N[C@H](CCN5CCOCC5)CSc5ccccc5)c(S(=O)(=O)C(F)(F)F)c4)cc3)CC2)C1 [Navitoclax] (partner 0.5 µM)
The procedure, abridged:
as §1

Compound in assay [4]: O=C(NC1CCNCC1)c1n[nH]cc1NC(=O)c1c(Cl)cccc1Cl [AT-7519] + COc1cccc2cc(-c3nc([C@H]4CC[C@H](C(=O)O)CC4)n4ncnc(N)c34)[nH]c12 [OSI-027] (partner 0.5 µM)
Summed up:
as §1

UMC-11: the relative viability in assay [1] (first compound 0.08 µM) is 0.493; in assay [1] (first compound 0.253 µM) it was 0.454; in assay [1] (first compound 0.8 µM) it was 0.456; in assay [1] (first compound 2.53 µM), 0.439; in assay [1] (first compound 8 µM), 0.441; in assay [2] (first compound 0.01 µM), 0.593. Further, the relative viability in assay [2] (first compound 0.03162 µM) was found to be 0.647; in assay [2] (first compound 0.3162 µM), 0.498; in assay [2] (first compound 1 µM) it was 0.384; in assay [3] (first compound 0.01 µM), 0.291; in assay [3] (first compound 0.03162 µM) it was 0.306; in assay [3] (first compound 0.3162 µM), 0.222. Besides, the relative viability in assay [3] (first compound 1 µM) was determined as 0.134; in assay [4] (first compound 0.01 µM), 0.442; in assay [4] (first compound 0.03162 µM) it was 0.432; in assay [4] (first compound 0.3162 µM), 0.404; in assay [4] (first compound 1 µM) it was 0.27.

The values are drawn from the supplement of paper PMC10307832.
